Test results taken from US20090298708A1, “2'-DEOXY-2'-FLUORO-BETA-D-ARABINONUCLEOSIDE 5'-TRIPHOSPHATES AND THEIR USE IN ENZYMATIC NUCLEIC ACID SYNTHESIS” (priority 2006, published 2009).
Marks after values point to notes of the source that are not given here.

Molecular target: T1, 9° Nm™ DNA polymerase (9N) (Thermococcus sp., UniProt Q56366, E143D)
T1 construct: purchased New England Biolabs; host or cells: E. coli
Assay: Primer extension assay with 9°Nm DNA polymerase
Assay type: biochemical, Thermococcus species (strain 9° N-7)
Set-up: key to Incorporation of three 2′F-araTTP / 2′F-araCTP (incorporation efficiency) / Enzymatic activity during primer extension reactions: ++++: excellent (no pausing observed); +++: very good (with slight pausing); ++: Good, full-length products with significant pausing; +: significant pausing, no full-length product but at least one 2′F-araN incorporation detected
Conditions: for Order of efficiency of incorporation: DNA template PF22 (T/U triphosphates) or PF24 (C triphosphates), three contiguous units; for full-length products generated: DNA template PF22, within 2 min, without pausing; for Incorporation of three 2′F-araTTP / 2′F-araCTP (incorporation efficiency): DNA template PF22 (2′F-araTTP) or PF24 (2′F-araCTP); for Enzymatic activity during primer extension reactions: plus dATP, dGTP
Method: Various different types of DNA polymerases were assessed, including the mesophilic enzyme Klenow fragment of DNA pol I (3′→5′ exo-) (“Kf”); the thermophilic DNA polymerases DV, 9N, Taq, Bst pol I, Th and Ph; and the viral reverse transcriptases HIV RT and MMLV. Kf is a genetically engineered proteolytic product of E. coli pol A gene that encodes DNA polymerase I which retains polymerase activity but has a mutation which abolishes the 3′->5′ and 5′->3′ exonuclease activities. DV is a genetically engineered DNA polymerase purified from a strain of E. coli that carries the DV DNA polymerase gene from Pyrococcus species GB-D. The gene has been engineered to eliminate 3′->5′ proofreading exonuclease activity. 9N is a genetically engineered DNA polymerase that has decreased 3′->5′ proofreading exonuclease activity. 9N is purified from a strain of E. coli that carries a modified 9° N DNA polymerase gene from Thermococcus species (strain 9° N-7). […] Taq polymerase is isolated from E. coli engineered to express Taq polymerase from Thermus aquaticus YT-1. Bst DNA polymerase (Large fragment) is a genetically engineered polymerase that consists of the portion of the Bacillus stearothemmophilus DNA polymerase protein responsible for 5′->3′ polymerase activity but lacks the 5′->3′ exonuclease domain. Th DNA polymerase is a genetically engineered, archaeon-derived DNA polymerase that is a variant of the 9N polymerase described above. The recombinant protein is isolated from E. coli engineered to express 9° NA485L (exo-) DNA polymerase gene, a genetic variant of the native DNA polymerase from Thermococcus species 9° N-7. Ph is a recombinant DNA polymerase that consists of a novel Pyrococcus-like enzyme fused with a double-strand DNA-binding and processivity-enhancing domain.
Primer extension assays were used to assess the incorporation of 2′F-araNTP on the various DNA templates (Table 1). The DNA primer (PF20) was first radioactively labeled at the 5′-hydroxyl terminus with a radioactive phosphorus probe and the enzyme T4 polynucleotide kinase (T4 PNK) (see Example 1 for General Methods). To assess the incorporation of 2′F-araNTPs, the primer and template were annealed, and the nucleoside 5′-triphosphates added in the presence of enzyme under the conditions specified in Table 2. Time points were obtained by analyzing small aliquots from the reaction mixture through polyacryamide gel electrophoresis (PAGE) and autoradiography.
Unless otherwise noticed in the Examples described below, the conditions used in the primer extension assays, such as dNTP concentration, reaction temperatures, concentration of Mg^2+, and reaction buffers (provided by the manufacturers, except for the HIV buffer which was prepared in-house) are shown in Table 2.
Primer extension assays were used to assess the incorporation of 2′F-araTTP on the DNA template (PF22). The DNA primer (PF20) was first radioactively labeled at the 5′-hydroxyl terminus with a radioactive phosphorus probe and the enzyme T4 polynucleotide kinase (T4 PNK) according to the manufacturer's specifications (MBI Fermentas Life Sciences, Burlington, ON). Incorporation of the ^32P label was accomplished in reaction mixtures consisting of DNA substrate (200 pmol), 2 μl loxreaction buffer (Buffer A for forward reaction: 500 mM Tris-HCl, pH 7.6 at 25° C., 100 mM MgCl2, 50 mM DTT, 1 mM spermidine and 1 mM EDTA), 1 μl T4 PNK enzyme solution (10 U/1 μl in a solution of 20 mM Tris-HCl, pH 7.5, 25 mM KCl, 0.1 mM EDTA, 2 mM DTT and 50% glycerol), 6 μl [γ-^32P]-ATP solution (6000 Ci/mmol, 10 mCi/ml; Amersham Biosciences, Inc.) and autoclaved sterile water to a final volume of 20 μl. The reaction mixture was incubated for about 45-60 min at 37° C., followed by a second incubation for 10 min at 95° C. to heat denature and deactivate the kinase enzyme.

T1 sequence (Q56366 whole entry E143D): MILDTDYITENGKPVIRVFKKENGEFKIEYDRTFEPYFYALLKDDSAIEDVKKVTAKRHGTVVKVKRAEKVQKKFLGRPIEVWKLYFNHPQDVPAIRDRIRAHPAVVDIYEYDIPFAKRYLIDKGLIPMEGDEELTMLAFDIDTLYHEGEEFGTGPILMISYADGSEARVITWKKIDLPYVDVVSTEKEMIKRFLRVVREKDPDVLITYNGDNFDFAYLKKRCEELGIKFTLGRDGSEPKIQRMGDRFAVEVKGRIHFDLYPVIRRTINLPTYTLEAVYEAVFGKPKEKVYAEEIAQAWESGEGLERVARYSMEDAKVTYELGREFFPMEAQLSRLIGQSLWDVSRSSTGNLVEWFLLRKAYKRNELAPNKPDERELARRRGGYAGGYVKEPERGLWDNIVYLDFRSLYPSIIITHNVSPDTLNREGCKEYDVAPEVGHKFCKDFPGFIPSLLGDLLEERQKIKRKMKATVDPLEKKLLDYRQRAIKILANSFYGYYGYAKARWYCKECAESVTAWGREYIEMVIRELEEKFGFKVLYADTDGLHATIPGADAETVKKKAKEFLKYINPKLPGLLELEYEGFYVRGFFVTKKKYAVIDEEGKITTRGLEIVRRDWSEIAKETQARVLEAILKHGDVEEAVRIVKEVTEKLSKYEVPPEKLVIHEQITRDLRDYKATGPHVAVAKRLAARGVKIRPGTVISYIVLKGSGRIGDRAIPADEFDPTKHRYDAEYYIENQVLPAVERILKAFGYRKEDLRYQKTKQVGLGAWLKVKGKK

Compound	Order of efficiency of incorporation (55° C.)	full-length products generated (55° C.)	Incorporation of three 2′F-araTTP / 2′F-araCTP (incorporation efficiency) (37° C.)	also measured
O=c1ccn([C@@H]2O[C@H](COP(=O)(O)OP(=O)(O)OP(=O)(O)O)[C@@H](O)[C@H]2F)c(=O)[nH]1 [2′F-rUTP, 1-(2-deoxy-2-fluoro-β-D-ribo-furanosyl)uracil 5′-triphosphate, reference compound]	dTTP~2′F-araTTP > 2′F-rUTP	–	–	expected full-length product (DNA template PF22, after one hour, 55° C.): ca. 20%
Cc1cn([C@H]2C[C@H](O)[C@@H](COP(=O)(O)OP(=O)(O)OP(=O)(O)O)O2)c(=O)[nH]c1=O [dTTP, reference compound]	dTTP~2′F-araTTP > 2′F-rUTP	ca. 100%	–	–
Nc1ccn([C@H]2C[C@H](O)[C@@H](COP(=O)(O)OP(=O)(O)OP(=O)(O)O)O2)c(=O)n1 [dCTP]	dCTP~2′F-araCTP~2′F-rCTP	–	–	–
Nc1ccn([C@@H]2O[C@H](COP(=O)(O)OP(=O)(O)OP(=O)(O)O)[C@@H](O)[C@@H]2F)c(=O)n1 [2′F-araCTP, 1-(2-deoxy-2-fluoro-β-D-arabinofuranosyl)cytosine 5′-triphosphate]	dCTP~2′F-araCTP~2′F-rCTP	–	None	Incorporation of three 2′F-araTTP / 2′F-araCTP (incorporation efficiency) (55° C.): ++++; Enzymatic activity during primer extension reactions (Example 3, DNA template PF24, 3x 2′F-araCTP, dTTP, 55° C.): +++
Cc1cn([C@@H]2O[C@H](COP(=O)(O)OP(=O)(O)OP(=O)(O)O)[C@@H](O)[C@@H]2F)c(=O)[nH]c1=O [2′F-araTTP, 1-(2-deoxy-2-fluoro-β-D-arabino-furanosyl)thymine 5′-triphosphate]	dTTP~2′F-araTTP > 2′F-rUTP	ca. 100%	++++	Enzymatic activity during primer extension reactions (Example 2, DNA template PF22, 3x 2′F-araTTP, dCTP, at 37° C.): +++^b
Nc1ccn([C@@H]2O[C@H](COP(=O)(O)OP(=O)(O)OP(=O)(O)O)[C@@H](O)[C@H]2F)c(=O)n1 [2′F-rCTP, 1-(2-deoxy-2-fluoro-β-D-ribofuranosyl) cytosine 5′-triphosphate, reference compound]	dCTP~2′F-araCTP~2′F-rCTP	–	–	–
